Source: ChEMBL document CHEMBL1129205, “Small peptide inhibitors of 47 mediated MAdCAM-1 adhesion to lymphocytes” (Bioorg Med Chem Lett, 1996)

Test system: HuT78
Experiment: Compound was tested for inhibition of MAdCAM-1/alpha-4 beta-7 mediated cell adhesion to T-cell lymphoma, HUT78 cells
Format: functional, cell-based
Details: Homo sapiens

Point of comparison: `CC(C)C[C@H](NC(=O)[C@H](CO)NC(=O)[C@@H](NC(=O)[C@H](CC(=O)O)NC(=O)[C@H](CC(C)C)NC(=O)CCCc1ccc2ccc3cccc4ccc1c2c34)[C@@H](C)O)C(N)=O`, IC50 5 µM. Against it:
- CC(C)C[C@H](NC(=O)[C@H](CO)NC(=O)[C@@H](NC(=O)[C@H](CC(=O)O)NC(=O)[C@H](CC(C)C)NC(=O)C1c2ccccc2-c2ccccc21)[C@@H](C)O)C(N)=O — 3.7-fold higher, 18.6 µM
- CC(C)C[C@H](NC(=O)[C@H](CO)NC(=O)[C@@H](NC(=O)[C@H](CC(=O)O)NC(=O)[C@H](CC(C)C)NC(=O)C(c1ccccc1)c1ccccc1)[C@@H](C)O)C(N)=O — 2.7-fold higher, 13.4 µM
- CC(C)C[C@H](NC(=O)[C@H](CO)NC(=O)[C@@H](NC(=O)[C@H](CC(=O)O)NC(=O)[C@H](CC(C)C)NC(=O)C(C1CCCCC1)C1CCCCC1)[C@@H](C)O)C(N)=O — higher, > 1000 µM
- CCCC(CCC)C(=O)N[C@@H](CC(C)C)C(=O)N[C@@H](CC(=O)O)C(=O)N[C@H](C(=O)N[C@@H](CO)C(=O)N[C@@H](CC(C)C)C(N)=O)[C@@H](C)O — higher, > 1000 µM
- CC(C)C[C@H](NC(=O)[C@H](CO)NC(=O)[C@@H](NC(=O)[C@H](CC(=O)O)NC(=O)[C@H](CC(C)C)NC(=O)Cc1ccccc1)[C@@H](C)O)C(N)=O — higher, > 1000 µM

Test system: not listed separately
Experiment: Inhibition of MAdCAM-1/alpha-4 beta7-mediated cell adhesion to T-cell lymphoma, HUT78 cells at 500 uM
Format: functional
Details: not given

Point of comparison: `CC(=O)N[C@@H](CCCN=C(N)N)C(=O)NCC(=O)N[C@@H](CC(C)C)C(=O)N[C@@H](CC(=O)O)C(=O)N[C@H](C(=O)N[C@@H](CO)C(=O)N[C@@H](CC(C)C)C(=O)NCC(N)=O)[C@@H](C)O` (stereo in doubt; 10), Inhibition 36%. Against it:
- CC(=O)N[C@@H](CCCN=C(N)N)C(=O)NCC(=O)N[C@@H](CC(C)C)C(=O)N[C@@H](CC(=O)O)C(=O)N[C@H](C(=O)N[C@@H](CO)C(=O)N[C@@H](CC(C)C)C(=O)NCC(N)=O)[C@@H](C)O (stereo in doubt; 4) — higher, 75%

Same assay, conditions: HuT78

Point of comparison: Ac-RVHWAGLD-NH2, inhibition at 500 µM 0%. Against it:
- CC(C)C[C@H](NC(=O)[C@H](CO)NC(=O)[C@@H](NC(=O)[C@H](CC(=O)O)NC(=O)[C@H](CC(C)C)NC(=O)CCCc1ccc2ccc3cccc4ccc1c2c34)[C@@H](C)O)C(N)=O — higher, 5%
- CC(C)C[C@H](NC(=O)[C@H](CO)NC(=O)[C@@H](NC(=O)[C@H](CC(=O)O)NC(=O)[C@H](CC(C)C)NC(=O)C1c2ccccc2-c2ccccc21)[C@@H](C)O)C(N)=O — higher, 18.6%
- CC(C)C[C@H](NC(=O)[C@H](CO)NC(=O)[C@@H](NC(=O)[C@H](CC(=O)O)NC(=O)[C@H](CC(C)C)NC(=O)C(c1ccccc1)c1ccccc1)[C@@H](C)O)C(N)=O — higher, 13.4%
- CC(=O)N[C@@H](CC(C)C)C(=O)N[C@H](CC(=O)O)C(=O)N[C@H](C(=O)N[C@@H](CO)C(=O)N[C@@H](CC(C)C)C(N)=O)[C@@H](C)O — the same, 0%
- Ac-AAASL-NH2 — the same, 0%
- Ac-ADTSL-NH2 — higher, 3%
- Ac-DTSLGSVQ-NH2 — the same, 0%
- Ac-GLDTSLGS-NH2 — higher, 28%
- Ac-HWRGLDTS-NH2 — higher, 46%
- Ac-HWRGLDTSLGSV-NH2 — higher, 71%
- Ac-LATSL-NH2 — the same, 0%
- Ac-LDTSLGSV-NH2 — higher, 16%
- Ac-LNTSL-NH2 — the same, 0%
- Ac-LYTSL-NH2 — the same, 0%
- Ac-RVHWRGLDTSLGSVQ-NH2 — higher, 88%
- Ac-VHWRGLDT-NH2 — higher, 48%
- Ac-WRGLDTSL-NH2 — higher, 52%
- Ac-WRGLDTSLGS-NH2 — higher, 71%
